Data set [1] relates to Trypanosoma brucei brucei. Briefly: Antitrypanosomal activity against Trypanosoma brucei brucei. Type of data set: functional, organism-based.
The subject of the next data set is A549. Kind of data set: Cytotoxicity against human A549 cells after 72 hrs by Alamar blue assay. Type of data set: functional, cell-based. Conditions: A549, 72 h.
The nature of data set [2]: Selectivity index, ratio of IC50 for HEK293 cells to IC50 for Trypanosoma brucei brucei. Type of data set: toxicity, cell-based. Conditions: human, HEK293 cells versus Trypanosoma brucei brucei; read-out: Selectivity Index.
The next data set deals with HeLa. Kind of data set: Cytotoxicity against human HeLa cells after 72 hrs by Alamar blue assay. Type of data set: functional, cell-based.
The subject of a further data set is HEK293. Briefly: Cytotoxicity against […] cells after 72 hrs by Alamar blue assay. Type of data set: cell-based. Conditions: Homo sapiens, HEK293, 72 h. (The colour change of resazurin is a common sign of viable cells or microbes.)
A further data set relates to MCF7. Kind of data set: Cytotoxicity against human MCF7 cells after 72 hrs by Alamar blue assay. Type of data set: functional, cell-based. Conditions: MCF7, 72 h.
Data set [3] is described as follows: Cytotoxicity against […] cells at 70 uM after 72 hrs by Alamar blue assay. Type of data set: cell-based. Conditions: human, HEK293 cells; read-out: INH.
Data set [4] relates to Trypanosoma brucei brucei. Kind of data set: Antitrypanosomal activity against Trypanosoma brucei brucei at 167 uM. Type of data set: functional.

Take `O=C1C=C(CCc2ccccc2)O[C@H](C[C@H]2CC=CC(=O)O2)C1`: the IC50 in data set [1] came to 2.8 µM; with A549 it was 78 µM; with HeLa, 43 µM; with HEK293 it was 20.4 µM. Further, the selectivity ratio in data set [2] is 7.4.
Turning to `N=C(N)c1ccc(/N=N/Nc2ccc(C(=N)N)cc2)cc1` [DIMINAZENE], the IC50 is 0.025 µM in data set [1] and > 80 µM in the data set on HEK293.
On to `O=C1C=C(/C=C/c2ccccc2)O[C@H](C[C@H]2CC=CC(=O)O2)C1` [OBOLACTONE], for which the IC50 turned out to be 32 µM in the data set with MCF7; 5.3 µM in data set [1]; 43 µM in the data set on A549; 24 µM in the data set on HeLa; 13.2 µM in the data set with HEK293. The selectivity ratio in data set [2] is 2.5.
In turn, `N=C(N)c1ccc(OCCCCCOc2ccc(C(=N)N)cc2)cc1` [PENTAMIDINE] registered an IC50 in data set [1] of 0.007 µM. Further, the cytotoxicity at 72 h, 70 µM in data set [3] was determined as 58.3%.
As for `O=c1ccc2cc3ccoc3cc2o1` [PSORALEN], the inhibition at 167 µM in data set [4] is 50.3%. Further, the IC50 with HEK293 was > 167 µM.
As for `COc1ccc(C[C@H](N)C(=O)N[C@H]2[C@@H](O)[C@H](n3cnc4c(N(C)C)ncnc43)O[C@@H]2CO)cc1` [PUROMYCIN], the values for the IC50 (in data set [1]; in the data set on HEK293) were 0.037 µM and 0.42 µM, respectively.

One may read the IC50 as the concentration that inhibits the measured activity by half. A word on the inhibition: it is how much of the control response was suppressed.
